Experimental data: publication PMC5716993, “The interdomain flexible linker of the polypeptide GalNAc transferases dictates their long-range glycosylation preferences” (Nature Communications, 2017)
Entries after “also recorded” stand apart in the source; their conditions may differ.

Legend:
Assay type in all cases: biochemical
[1] = target: T1, GalNAc-T2 (triple mutant, R438A-D444A-F447A) (Homo sapiens, UniProt Q10471, D444A/F447A/R438A); experiment: Transferase assay / Michaelis-Menten kinetics of GalNAc-T2 triple mutant; conditions: for Vmax / Km: Triple Mutant (0.02 µM), pH 6.5 cacodylate, 37 °C, 0.25 mM UDP-[3H]-GalNAc, Michaelis-Menten fit, ± standard deviation; for Vmax: 10 mM MnCl2; for Catalytic efficiency (Vmax/Km): Triple Mutant, errors estimated from the largest percent error of Vmax or Km
T1 construct: the previous reported template pPICZαAgalnact2 (K75-Q571); made in house; host or cells: Pichia pastoris SMD1168 (pPICZαA)
T1 sequence (Q10471 75-571 R438A/D444A/F447A): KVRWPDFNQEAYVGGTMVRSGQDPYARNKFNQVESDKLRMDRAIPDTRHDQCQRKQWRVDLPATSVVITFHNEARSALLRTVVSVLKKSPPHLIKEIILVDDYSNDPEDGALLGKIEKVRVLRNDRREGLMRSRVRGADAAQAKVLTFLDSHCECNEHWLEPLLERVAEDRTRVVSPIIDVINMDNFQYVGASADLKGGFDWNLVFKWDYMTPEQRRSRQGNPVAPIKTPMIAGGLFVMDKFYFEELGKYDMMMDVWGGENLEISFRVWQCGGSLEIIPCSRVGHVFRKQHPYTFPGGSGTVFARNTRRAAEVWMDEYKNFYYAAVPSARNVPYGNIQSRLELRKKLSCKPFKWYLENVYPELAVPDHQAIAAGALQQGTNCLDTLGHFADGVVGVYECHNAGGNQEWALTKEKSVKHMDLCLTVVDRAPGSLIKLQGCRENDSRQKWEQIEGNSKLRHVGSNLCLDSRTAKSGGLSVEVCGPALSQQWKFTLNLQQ
Method: (§1) Specific activity determinations: GalNAc-T glycosylation reactions against (glyco)peptides 1–3 were performed with 75 mM sodium cacodylate, pH 6.5, 1 mM 2-mercaptoethanol, 10 mM MnCl2, 0.25 mM [^3H]-radiolabeled UDP-GalNAc (~6 × 10^8 DPM/µmole, American Radiolabeled Chemicals Inc.), and 1.4 mM (~1.25 mg/ml) of (glyco)peptide (from 4 mM stock in 1 mM TRIS, pH ~7) and varying concentrations (0.01 to 0.5 µM) of transferase (determined by OD280), giving a final reaction volumes of 20 µl in 100 µl capped Eppendorf tubes. Reactions were incubated at 37 °C in a thermostated microplate shaker (Taitec Microincubator M-36) and quenched at the appropriate reaction time by the addition of 20 µl of 250 mM EDTA and placed on ice prior to final workup. Typically, for each transferase, glycosylation reactions were performed at the same time with all three (glyco)peptide substrates (including a no peptide control) using the same batch of transferase and the same UDP-[^3H]-GalNAc stock. Before performing time course experiments, the relative activity of each transferase was determined by trial and error against all three peptides to determine the optimal transferase concentration or incubation time that gave no more than 10% peptide glycosylation against the best substrate. Final time course experiments typically consisted of incubation times of 10, 20, and 30, or 30, 60, and 90 or 120 min (depending on activity) and were performed at least twice. Most transferases were also characterized at two different enzyme concentrations (0.01–0.03 and 0.2–0.5 µM) and the results combined. After quenching the reaction and diluting to 4 ml, free UDP and non-hydrolyzed UDP-GalNAc were removed by passage over a Dowex 1 × 8 anion exchange resin (~3 ml column). Total UDP-[^3H]-GalNAc utilization (transfer to peptide substrate and transfer to water, i.e, hydrolysis) was determined by difference after scintillation counting (Beckman LS5801 scintillation counter) 1/20 of the sample before and after passage over Dowex 1 × 8. The extent of [^3H]-GalNAc transfer to peptide and the extent of hydrolysis was determined by Sephadex G10 gel filtration analysis, typically for the longest reaction time point, as previously described. Example gel filtration chromatograms are given in Supplementary Fig. 12. Significant hydrolysis was only observed for GalNAc-T4, which was corrected for in determining its specific activity. Specific activity was obtained by calculating at each individual data time point (of the combined time course plots, Fig. 4b), an individual-specific activity, which was then averaged to obtain the overall average specific activity (and standard deviation). Specific activity is reported as nmol of glycopeptide product formed per min, per pmol of enzyme. Substrate activity ratios (i.e., substrate ratios 2/1, 3/1, and 3/2) were also obtained at each individual time point and averaged (with standard deviation). […] Note that the Microsoft Excel least squares fitting function LINEST was used to obtain the linear plots shown in Fig. 4b while fixing the y intercept to zero. Note that the specific activity calculated from the least square slope differed slightly (less than 10%) from that determined from the average of the individual time points.
(§2) Detailed enzyme kinetics on GalNAc-T4, GalNAc-T2, the GalNAc-T2 triple mutant and GalNAc-T2 chimera 3: Glycosylation reactions were performed as described above using a fixed enzyme concentration (0.06 µM for GalNAc-T4, and 0.02 µM for GalNAc-T2 and its linker constructs) with varying peptide concentrations (typically 45, 90, 180, 350, 700, 1400, and 2000 μM). Incubation times (10–90 min) were chosen such that no more than 30% of the UDP-GalNAc donor was depleted while typically giving less than 10% peptide glycosylation, after correction for UDP-GalNAc hydrolysis described above. Specific activities were obtained from one to two individual incubation time points performed in two–three separate experiments. […]

[2] = target: T2, GalNAc-T4 (Homo sapiens, UniProt Q8N4A0); experiment: Transferase assay / Michaelis-Menten kinetics of GalNAc-T4; conditions: for Activity of GalNAc-T4 on peptide / glycosylation: over a range of peptide concentrations, in words; for Activity of GalNAc-T4 on peptide / glycosylation / Catalytic efficiency (Vmax/Km): GalNAc-T4
T2 construct: amino acid residues 36–578 of the human GalNAc-T4; histidine tag (C); made in house; host or cells: Pichia pastoris SMD1168 (pPICZαA, secreted)
T2 sequence (Q8N4A0 36-578): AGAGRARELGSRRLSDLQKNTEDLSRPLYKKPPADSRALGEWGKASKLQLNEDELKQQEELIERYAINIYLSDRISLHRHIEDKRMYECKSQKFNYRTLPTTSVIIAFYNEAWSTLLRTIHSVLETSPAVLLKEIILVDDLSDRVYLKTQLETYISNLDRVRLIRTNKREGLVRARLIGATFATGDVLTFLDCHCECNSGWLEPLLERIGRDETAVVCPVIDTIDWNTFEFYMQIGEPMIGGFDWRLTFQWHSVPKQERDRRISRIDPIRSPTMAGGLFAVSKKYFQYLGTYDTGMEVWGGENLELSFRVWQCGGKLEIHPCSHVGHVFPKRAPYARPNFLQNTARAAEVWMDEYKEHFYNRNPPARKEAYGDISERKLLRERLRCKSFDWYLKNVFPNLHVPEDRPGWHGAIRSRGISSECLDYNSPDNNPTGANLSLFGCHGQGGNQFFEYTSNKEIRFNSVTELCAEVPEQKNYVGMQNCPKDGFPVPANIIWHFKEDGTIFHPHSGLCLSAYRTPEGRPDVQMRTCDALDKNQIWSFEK
Method: as §1, §2

[3] = target: T3, GalNAc-T2-t4Flexible linker (Chimera 3) (Homo sapiens, UniProt Q10471, A446W/D441E/D444P/E436N/F447H/H442D/I445G/Q443R/R438H); experiment: Transferase assay / Michaelis-Menten kinetics of GalNAc-T2 chimera 3; conditions: for Vmax / Km: Chimera 3 (0.02 µM), pH 6.5 cacodylate, 37 °C, 0.25 mM UDP-[3H]-GalNAc, Michaelis-Menten fit, ± standard deviation; for Vmax: 10 mM MnCl2; for Catalytic efficiency (Vmax/Km): Chimera 3, errors estimated from the largest percent error of Vmax or Km
T3 construct: made in house; host or cells: Pichia pastoris SMD1168 (pPICZαA)
T3 sequence (Q10471 75-571 E436N/R438H/D441E/H442D/Q443R/D444P/I445G/A446W/F447H): as the sequence (Q10471 75-571 R438A/D444A/F447A) above, with E362N, A364H, D367E, H368D, Q369R, A370P, I371G, A372W, A373H counted along it
Method: as §1, §2

[4] = target: T4, GalNAc-T2 (Homo sapiens, UniProt Q10471); experiment: Transferase assay / Michaelis-Menten kinetics of GalNAc-T2; conditions: for Vmax / Km: GalNAc-T2 (0.02 µM), pH 6.5 cacodylate, 37 °C, 0.25 mM UDP-[3H]-GalNAc, Michaelis-Menten fit (1/y weighting), ± standard deviation; for Vmax: 10 mM MnCl2, scintillation counting; for Catalytic efficiency (Vmax/Km): errors estimated from the largest percent error of Vmax or Km
T4 construct: the previous reported template pPICZαAgalnact2 (K75-Q571); made in house; host or cells: Pichia pastoris (pPICZαA)
T4 sequence (Q10471 75-571): as the sequence (Q10471 75-571 R438A/D444A/F447A) above, with A364R, A370D, A373F counted along it
Method: as §1, §2

[5] = tested on: GalNAc-T2 chimeras 1–3; experiment: Specific activity / glycosylation preference of GalNAc-T2 chimeras 1-3; conditions: in words
Method: Specific activity determinations: GalNAc-T glycosylation reactions against (glyco)peptides 1–3 were performed with 75 mM sodium cacodylate, pH 6.5, 1 mM 2-mercaptoethanol, 10 mM MnCl2, 0.25 mM [^3H]-radiolabeled UDP-GalNAc (~6 × 10^8 DPM/µmole, American Radiolabeled Chemicals Inc.), and 1.4 mM (~1.25 mg/ml) of (glyco)peptide (from 4 mM stock in 1 mM TRIS, pH ~7) and varying concentrations (0.01 to 0.5 µM) of transferase (determined by OD280), giving a final reaction volumes of 20 µl in 100 µl capped Eppendorf tubes. […] Before performing time course experiments, the relative activity of each transferase was determined by trial and error against all three peptides to determine the optimal transferase concentration or incubation time that gave no more than 10% peptide glycosylation against the best substrate. […] Total UDP-[^3H]-GalNAc utilization (transfer to peptide substrate and transfer to water, i.e, hydrolysis) was determined by difference after scintillation counting (Beckman LS5801 scintillation counter) 1/20 of the sample before and after passage over Dowex 1 × 8. The extent of [^3H]-GalNAc transfer to peptide and the extent of hydrolysis was determined by Sephadex G10 gel filtration analysis, typically for the longest reaction time point, as previously described. […]

| Substance | Vmax [1] | Km [1] | Catalytic efficiency (Vmax/Km) [1] | Activity of GalNAc-T4 on peptide / glycosylation [2] | Vmax [3] | Km [3] | Catalytic efficiency (Vmax/Km) [3] | Vmax [4] | Km [4] | Catalytic efficiency (Vmax/Km) ([4]; GalNAc-T2) | substrate preference of GalNAc-T2, higher substrate concentrations ([4]; in words) | further results |
| --- | --- | --- | --- | --- | --- | --- | --- | --- | --- | --- | --- | --- |
| AGAGTTPGPGAGAT*GA [Peptide 2, monoglycopeptide …*GA, T* denotes the Thr-O-GalNAc moiety] | 1.80 ± 0.06 mM/(nmole*min) | 400 ± 40 µM | 4.54 ± 0.9 nmol/min | imperceptibly glycosylated; also recorded: too low to determine their kinetic constants; also recorded: largely unglycosylated | 1.35 ± 0.11 mM/(nmole*min) | 700 ± 140 µM | 1.93 ± 0.8 nmol/min | 3.12 ± 0.07 mM/(nmole*min) | 180 ± 10 µM | 17.0 ± 2.3 nmol/min | nearly equal preferences | change in kinetic parameters against monoglycopeptide 2 ([1]; triple mutant, in words): decrease in Vmax and increase in Km; change in kinetic parameters (Vmax, Km) ([3]; chimera 3, in words): changes in Vmax and Km; increase in catalytic efficiency for monoglycopeptide 2 over monoglycopeptide 3 ([4]; GalNAc-T2, ratio 2 over 3): over threefold; Km of monoglycopeptide 2 compared to monoglycopeptide 3 ([4]; GalNAc-T2, ratio, in words): ~ fourfold lower; substrate preference of GalNAc-T2, low substrate concentrations ([4]; low substrate concentrations, in words): high preference for monoglycopeptide 2 at low substrate concentrations |
| GAT*GAGAGAGTTPGPG [Peptide 3, monoglycopeptide GAT*…, T* denotes the Thr-O-GalNAc moiety] | 2.82 ± 0.10 mM/(nmole*min) | 570 ± 50 µM | 4.94 ± 0.9 nmol/min | glycosylated selectively | 3.69 ± 0.29 mM/(nmole*min) | 990 ± 160 µM | 3.73 ± 1.2 nmol/min | 3.79 ± 0.34 mM/(nmole*min) | 750 ± 130 µM | 5.03 ± 1.8 nmol/min | nearly equal preferences | specific activity and kinetic parameters against monoglycopeptide 3, change [5]: remained relative constant; Catalytic efficiency (Vmax/Km) ([2]; Fig. 2a and text): ~ 75 (nmole min)^−1; Km ([2]; Fig. 2a and text, GalNAc-T4 (0.06 µM), Michaelis-Menten fit): ~40 µM; Vmax ([2]; Supplementary Table 2, GalNAc-T4 (0.06 µM), pH 6.5 cacodylate, 37 °C, 0.25 mM UDP-[3H]-GalNAc, 10 mM MnCl2, corrected for UDP-GalNAc hydrolysis, ± standard deviation): 3.09± 0.25 mM/(nmole*min); Km ([2]; Supplementary Table 2, GalNAc-T4 (0.06 µM), pH 6.5 cacodylate, 37 °C, 0.25 mM UDP-[3H]-GalNAc, ± standard deviation): 41 ± 18 µM; Catalytic efficiency (Vmax/Km) ([2]; Supplementary Table 2, errors estimated from the largest percent error of Vmax or Km): 75.2 ± 34 nmol/min |
